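Grown in 96-well plates, cells were treated for 48 hours with each compound at five concentrations. Insufficient inhibition: endpoint recorded as highest concentration tested. Abbreviation: GI50, concentration required for 50% inhibition of growth.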 Active and inactive are the calls of the source. No stated cut-off is given here; in the data, active = GI50 up to about 1.1 µM and inactive = higher.
Experiments:
Assay in all cases: NCI anticancer screen, dose series, 48 h
[1] = system: KM12
[2] = system: HCT-116
[3] = system: T47D
[4] = system: SK-MEL-28
[5] = system: LOX IMVI
[6] = system: TK-10
[7] = system: EKVX
[8] = system: 786-0
[9] = system: SF-539
[10] = system: MOLT-4
[11] = system: NCI-H522
[12] = system: MDA-N
[13] = system: PC-3
[14] = system: UO-31
[15] = system: NCI-H226
[16] = system: RXF 393
[17] = system: OVCAR-5
[18] = system: SNB-19
[19] = system: NCI-H460

Measured: GI50

O=C(O)C/C(=C\c1ccco1)C(=O)O
inactive: [1] > 100 µM | [2] > 100 µM | [3] > 100 µM | [4] > 100 µM | [5] > 100 µM | [6] > 100 µM | [7] > 100 µM | [8] > 100 µM | [9] > 100 µM | [10] > 100 µM | [11] > 100 µM | [12] > 100 µM | [13] > 100 µM | [14] > 100 µM | [15] > 100 µM | [16] > 100 µM | [17] > 100 µM | [18] > 100 µM

CCC(=O)Nc1ccc(N2C(=O)C(Cl)C2c2ccc(SC)cc2)cc1 (stereo not given)
inactive: [1] > 100 µM | [2] > 100 µM | [3] 73.6 µM | [4] > 100 µM | [5] 40.1 µM | [7] 52.7 µM | [8] 57.3 µM | [19] 32.8 µM | [9] 26.9 µM | [10] 67.8 µM | [11] 41 µM | [12] > 100 µM | [13] > 100 µM | [14] > 100 µM | [15] 31.5 µM | [16] 34.8 µM | [17] 97.5 µM | [18] > 100 µM

O=c1[nH]cc(/N=C/c2cc(Cl)ccc2O)c(=O)[nH]1
inactive: [1] 26.2 µM | [2] 9.02 µM | [3] 14.8 µM | [4] 13.6 µM | [6] > 100 µM | [7] 32.1 µM | [8] 22 µM | [19] 48.8 µM | [9] 1.89 µM | [10] 3.88 µM | [11] 31.7 µM | [12] 37.8 µM | [13] 8.83 µM | [14] 29.6 µM | [15] 19.2 µM | [16] 81.7 µM | [17] 22.4 µM | [18] 20.7 µM

CC1=NN(C(=O)CC(=O)Nc2ccc(C)cc2)C(=O)C1/N=N/c1ccc(C(=O)O)cc1 (stereo not given)
inactive: [1] > 100 µM | [2] > 100 µM | [3] > 100 µM | [4] > 100 µM | [5] 69.3 µM | [6] > 100 µM | [7] > 100 µM | [8] > 100 µM | [9] > 100 µM | [11] > 100 µM | [12] > 100 µM | [13] > 100 µM | [14] 55.8 µM | [16] > 100 µM | [17] > 100 µM | [18] > 100 µM

N#CCCN(CCC#N)c1ccc(C(=N/c2ccc(F)cc2)/N=N/c2ccc(Cl)cc2)cc1
inactive: [1] > 100 µM | [2] > 100 µM | [3] > 100 µM | [4] > 100 µM | [6] > 100 µM | [7] > 100 µM | [8] > 100 µM | [19] > 100 µM | [9] > 100 µM | [10] > 100 µM | [11] > 100 µM | [12] > 100 µM | [13] > 100 µM | [14] > 100 µM | [15] > 100 µM | [16] > 100 µM | [17] > 100 µM | [18] > 100 µM

COC(=O)NC(C(F)(F)F)(C(F)(F)F)P1(=O)OCCCO1
inactive: [1] 22.8 µM | [2] 23.2 µM | [3] 20.4 µM | [4] 35.6 µM | [5] 16.4 µM | [6] 37.4 µM | [8] 36.9 µM | [19] 30.2 µM | [9] 21.1 µM | [10] 17.1 µM | [11] 14.5 µM | [12] 23.2 µM | [13] 25.4 µM | [14] 18.3 µM | [15] 16.2 µM | [16] 2.74 µM | [17] 26.1 µM | [18] 25.5 µM

N#CCN(CC#N)C1CC=CCC1N(CC#N)CC#N (stereo not given)
inactive: [1] > 100 µM | [2] > 100 µM | [3] > 100 µM | [5] > 100 µM | [6] > 100 µM | [7] > 100 µM | [8] > 100 µM | [19] > 100 µM | [9] > 100 µM | [10] > 100 µM | [11] > 100 µM | [12] > 100 µM | [13] > 100 µM | [14] > 100 µM | [15] > 100 µM | [16] > 100 µM | [17] > 100 µM | [18] > 100 µM

Cc1ccc(-c2n[nH]c(=O)n2NC(=O)c2ccccc2C(=O)O)cc1
inactive: [1] > 100 µM | [2] > 100 µM | [3] 72.8 µM | [4] > 100 µM | [5] > 100 µM | [6] > 100 µM | [8] > 100 µM | [19] > 100 µM | [9] > 100 µM | [10] > 100 µM | [11] > 100 µM | [12] > 100 µM | [13] > 100 µM | [14] > 100 µM | [15] > 100 µM | [16] > 100 µM | [18] > 100 µM

[O-][n+]1cn[n+]([O-])c2ccccc21
inactive: [1] 19.5 µM | [2] 13.3 µM | [3] 5.97 µM | [4] > 100 µM | [5] 23.9 µM | [6] > 100 µM | [7] 33 µM | [8] 14.6 µM | [9] 22.3 µM | [10] 2.91 µM | [11] 15.1 µM | [12] 20.1 µM | [13] 11.7 µM | [14] 28.3 µM | [15] > 100 µM | [16] 20.7 µM | [17] > 100 µM | [18] 84.1 µM

OC[C@H]1CC(c2nn[nH]n2)[C@H](O)[C@@H]1O (stereo not given in full)
inactive: [1] > 100 µM | [2] > 100 µM | [3] > 100 µM | [4] > 100 µM | [5] > 100 µM | [6] > 100 µM | [8] > 100 µM | [19] > 100 µM | [9] > 100 µM | [10] > 100 µM | [11] > 100 µM | [12] > 100 µM | [13] > 100 µM | [14] > 100 µM | [15] > 100 µM | [16] 8.13 µM | [17] > 100 µM | [18] > 100 µM

C=CCSC1=N/C(=C\c2ccc(OC)cc2)C(=O)N1CC=C
inactive: [1] 21.9 µM | [2] 25.4 µM | [3] 16.2 µM | [4] 42.5 µM | [5] 33 µM | [6] 45.2 µM | [7] 19.7 µM | [8] 25.5 µM | [19] 27.6 µM | [9] 36.6 µM | [10] 13.7 µM | [11] 27.7 µM | [12] 23.2 µM | [13] 20.8 µM | [14] 34.3 µM | [16] 14.6 µM | [17] 57.8 µM | [18] 84.3 µM

Reference: ChEMBL document CHEMBL1201862, “PubChem BioAssay data set” (2004)
